Patent publication US9718822B2, “Macrocyclic compounds as Trk kinase inhibitors” (Array BioPharma, Inc., priority 2010, dated 2017)
pIC50: −log10 of the molar value. Like-named read-outs stand apart in the source and are kept apart here.

What was measured:
[1] = target: His-tagged recombinant human TrkA (cytoplasmic domain) (Homo sapiens (Human), UniProt P04629); assay: TrkA Binding Assay (LanthaScreen Eu Kinase Binding Assay)
Procedure: The ability of a compound to bind to TrkA was measured by Invitrogen's LanthaScreen™ Eu Kinase Binding Assay. […] After a 60-minute incubation at 22° C., the reaction was measured using the EnVision via TR-FRET dual wavelength detection, and the POC was calculated from the emission ratio. The compound dose response data was fit to a 4-parameter logistic model and IC50 was defined as the concentration of compound at 50 POC.

[2] = target: histidine-tagged recombinant human TrkA, cytoplasmic domain (Homo sapiens (Human), UniProt P04629); assay: TrkA ELISA Assay; assay type: biochemical; conditions: read-out: TrkA Elisa Enzyme Assay IC50; note: 2.5 nM TrkA
histidine-tagged recombinant human TrkA, cytoplasmic domain, sequence (P04629 440-796): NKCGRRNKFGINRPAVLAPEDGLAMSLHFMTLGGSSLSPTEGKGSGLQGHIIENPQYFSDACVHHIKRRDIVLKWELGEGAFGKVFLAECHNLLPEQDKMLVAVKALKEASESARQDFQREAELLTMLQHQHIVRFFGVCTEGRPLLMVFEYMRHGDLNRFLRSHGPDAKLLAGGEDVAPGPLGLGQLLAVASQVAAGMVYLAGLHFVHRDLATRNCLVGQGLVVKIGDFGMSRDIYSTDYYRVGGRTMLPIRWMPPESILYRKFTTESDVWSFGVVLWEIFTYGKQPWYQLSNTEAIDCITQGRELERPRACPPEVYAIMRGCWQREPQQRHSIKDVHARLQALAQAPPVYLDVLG
Procedure: An enzyme-linked immunosorbant assay (ELISA) was used to assess TrkA kinase activity in the presence of inhibitors. Immulon 4HBX 384-well microtiter plates (Thermo part #8755) were coated with a 0.025 mg/mL solution of poly (Glu, Ala, Tyr; 6:3:1; Sigma P3899). […] The assay buffer consisted of 25 mM MOPS pH 7.5, 0.005% (v/v) Triton X-100 and 5 mM MgCl2. The reaction mixture was removed from the plate by washing with PBS containing 0.1% (v/v) Tween 20. The phosphorylated reaction product was detected using 0.2 μg/mL of a phosphotyrosine specific monoclonal antibody (clone PY20) conjugated to horseradish peroxidase in conjunction with the TMB Peroxidase Substrate System (KPL). After the addition of 1M phosphoric acid, the chromogenic substrate color intensity was quantitated via absorbance at 450 nm. IC50 values were calculated using either a 4 or 5-parameter logistic curve fit.
Table 1 provides averaged IC50 values for compounds of the invention when tested in this assay.

[3] = averaged IC50 values, TR-FRET, 60-minute incubation at 22° C., 2% DMSO final

His-tagged recombinant human TrkA (cytoplasmic domain), sequence (P04629 440-796): as above

| Structure (SMILES) | pIC50 [2] | pIC50 [1] | also measured |
| --- | --- | --- | --- |
| O=C1NC[C@H](O)COc2ccc(F)cc2C2CC(F)(F)CN2c2ccn3ncc1c3n2 (single isomer, unassigned; diastereomer 1) [45 Diastereomer 1] |  |  | pIC50 [1, 3]: 7.00 to 9.00 |
| O=C1NC[C@H](O)COc2ccc(F)cc2C2CC(F)(F)CN2c2ccn3ncc1c3n2 (single isomer, unassigned; diastereomer 2) [45 Diastereomer 2] |  |  | pIC50 [1, 3]: 7.00 to 9.00 |
| O=C1NCCCOc2cccc(n2)[C@H]2CCCN2c2ccn3ncc1c3n2 [Example 2, (6R)-12-oxa-2,16,20,21,24,26-hexaazapentacyclo[16.5.2.1^7,11.0^2,6.0^21,25]hexacosa-1(24),7(26),8,10,18(25),19,22-heptaen-17-one] | 7.00 to 9.00 | 7.00 to 9.00 |  |
| O=C1NCC(O)COc2ncc(F)cc2[C@H]2CCCN2c2ccn3ncc1c3n2 (stereo partly drawn) [Example 6, (6R)-9-fluoro-15-hydroxy-13-oxa-2,11,17,21,22,25-hexaazapentacyclo-[17.5.2.0^2,6.0^7,12.0^22,26]hexacosa-1(25),7,9,11,19(26),20,23-heptaen-18-one] |  |  | pIC50 ([2]; averaged IC50 values, […] TrkA, 500 μM ATP, 25 minutes at ambient temperature): 7.00 to 9.00; pIC50 [1, 3]: 7.00 to 9.00 |
| O=C1NCCCCOc2ncc(F)cc2[C@H]2CCCN2c2ccn3ncc1c3n2 [Example 10, (6R)-9-fluoro-13-oxa-2,11,18,22,23,26-hexaazapentacyclo[18.5.2.0^2,6.0^7,12.0^23,27]heptacosa-1(26),7,9,11,20(27),21,24-heptaen-19-one] | 7.00 to 9.00 | 7.00 to 9.00 |  |
| O=C1NCCCNc2ncc(F)cc2[C@H]2CCCN2c2ccn3ncc1c3n2 [Example 13, (6R)-9-fluoro-2,11,13,17,21,22,25-heptaazapentacyclo[17.5.2.0^2,6.0^7,12.0^22,26]hexacosa-1(25),7,9,11,19(26),20,23-heptaen-18-one] | 7.00 to 9.00 |  |  |
| O=C1NCC(F)(F)COc2ncc(F)cc2[C@H]2CCCN2c2ccn3ncc1c3n2 [Example 19, (6R)-9,15,15-trifluoro-13-oxa-2,11,17,21,22,25-hexaazapentacyclo[17.5.2.0^2,6.0^7,12.0^22,26]hexacosa-1(25),7,9,11,19(26),20,23-heptaen-18-one] | 7.00 to 9.00 | 7.00 to 9.00 |  |
| Fc1ccc2c(c1)[C@H]1CCCN1c1ccn3ncc(c3n1)CNCCO2 [Example 21, (6R)-9-fluoro-13-oxa-2,16,20,21,24-pentaazapentacyclo[16.5.2.0^2,6.0^7,12.0^21,25]pentacosa-1(24),7,9,11,18(25),19,22-heptaene] | 5.52 to 7.00 |  |  |
| CC(=O)N1CCOc2ccc(F)cc2[C@H]2CCCN2c2ccn3ncc(c3n2)C1 [Example 22, 1-[(6R)-9-fluoro-13-oxa-2,16,20,21,24-pentaazapentacyclo[16.5.2.0^2,6.0^7,12.0^21,25]pentacosa-1(24),7,9,11,18(25),19,22-heptaen-16-yl]ethan-1-one] | 7.00 to 9.00 |  |  |
| Fc1ccc2c(c1)[C@H]1CCCN1c1ccn3ncc(c3n1)CNCCCO2 [Example 24, (6R)-9-fluoro-13-oxa-2,17,21,22,25-pentaazapentacyclo[17.5.2.0^2,6.0^7,12.0^22,26]hexacosa-1(25),7,9,11,19(26),20,23-heptaene] | 5.52 to 7.00 |  |  |
| CS(=O)(=O)N1CCOc2ccc(F)cc2[C@H]2CCCN2c2ccn3ncc(c3n2)C1 [Example 25, (6R)-9-fluoro-16-methanesulfonyl-13-oxa-2,16,20,21,24-pentaazapentacyclo[16.5.2.0^2,6.0^7,12.0^21,25]pentacosa-1(24),7,9,11,18(25),19,22-heptaene] | 7.00 to 9.00 |  |  |
| CS(=O)(=O)N1CCCOc2ccc(F)cc2[C@H]2CCCN2c2ccn3ncc(c3n2)C1 [Example 27, (6R)-9-fluoro-7-methanesulfonyl-13-oxa-2,17,21,22,25-pentaazapentacyclo[17.5.2.0^2,6.0^7,12.0^22,26]hexacosa-1(25),7,9,11,19(26),20,23-heptaene] | 7.00 to 9.00 |  |  |
| CCNC(=O)N1CCCOc2ccc(F)cc2[C@H]2CCCN2c2ccn3ncc(c3n2)C1 [Example 28] | 7.00 to 9.00 |  |  |
| CCNC(=O)N1CCOc2ccc(F)cc2[C@H]2CCCN2c2ccn3ncc(c3n2)C1 [Example 29, (6R)—N-ethyl-9-fluoro-13-oxa-2,16,20,21,24-pentaazapentacyclo-[16.5.2.0^2,6.0^7,12.0^21,25]pentacosa-1(24),7,9,11,18(25),19,22-heptaene-16-carboxamide] | 7.00 to 9.00 |  |  |
| C[C@H]1CNC(=O)c2cnn3ccc(nc23)N2CCC[C@@H]2c2cc(F)cn(c2=O)C1 [Example 35, (6R,13S)-9-fluoro-13-methyl-2, 11, 15,19,20,23-hexaazapentacyclo [15.5.2.1^7,11.0^2,6.0^20,24]pentacosa-1(23),7,9,17(24),18,21-hexaene-16,25-dione] |  | 7.00 to 9.00 |  |
| O=C1NC[C@H](O)COc2ccc(F)cc2[C@@H]2C[C@@H](O)CN2c2ccn3ncc1c3n2 [Example 41-B, (4R,6S,15S)-9-fluoro-4,15-dihydroxy-13-oxa-2,17,21,22,25-pentaazapentacyclo [17.5.2.0^2,6.0^7,12.0^22,26]hexacosa-1(25),7(12),8,10,19(26),20,23-heptaen-18-one] |  |  | pIC50 [1, 3]: 5.52 to 7.00 |
| O=C1NCCCOc2ccc(F)cc2[C@H]2C[C@@H](O)CN2c2ccn3ncc1c3n2 [Example 42, (4R,6R)-9-fluoro-4-hydroxy-13-oxa-2,17,21,22,25-pentaazapentacyclo [17.5.2.0^2,6.0^7,12.0^22,26]hexacosa-1(25),7(12),8,10,19(26),20,23-heptaen-18-one] |  | 7.00 to 9.00 |  |
| O=C1NCCCOc2ccc(F)cc2[C@@H]2C[C@@H](O)CN2c2ccn3ncc1c3n2 [Example 42-B, (4R,6S)-9-fluoro-4-hydroxy-13-oxa-2,17,21,22,25-pentaazapentacyclo [17.5.2.0^2,6.0^7,12.0^22,26]hexacosa-1(25),7(12),8,10,19(26),20,23-heptaen-18-one] |  |  | pIC50 [1, 3]: 5.52 to 7.00 |
| O=C1NCCOc2ccc(F)cc2[C@H]2C[C@@H](O)CN2c2ccn3ncc1c3n2 [Example 43, (4R,6R)-9-fluoro-4-hydroxy-13-oxa-2,16,20,21,24-pentaazapentacyclo [16.5.2.0^2,6.0^7,12.0^21,25]pentacosa-1(24),7,9,11,18(25),19,22-heptaen-17-one] |  | 7.00 to 9.00 |  |
| O=C1NCCOc2ccc(F)cc2[C@@H]2C[C@@H](O)CN2c2ccn3ncc1c3n2 [Example 43-B, (4R,6S)-9-fluoro-4-hydroxy-13-oxa-2,16,20,21,24-pentaazapentacyclo [16.5.2.0^2,6.0^7,2.0^21,25]pentacosa-1(24),7,9,11,18(25),19,22-heptaen-17-one] |  |  | pIC50 [1, 3]: 5.52 to 7.00 |

Further lines, with some results ahead:

| pIC50 [2] | pIC50 [1] | Structure (SMILES) | also measured |
| --- | --- | --- | --- |
| 7.00 to 9.00 | 7.00 to 9.00 | O=C1NC[C@@H](O)Cn2cc(F)cc(c2=O)[C@H]2CCCN2c2ccn3ncc1c3n2 [Example 8] |  |
| 7.00 to 9.00 | 7.00 to 9.00 | O=C1NCCCCn2cc(F)cc(c2=O)[C@H]2CCCN2c2ccn3ncc1c3n2 [Example 11, (6R)-9-fluoro-2,11,16,20,21,24-hexaazapentacyclo[16.5.2.1^7,11.0^2,6.0^21,25]hexacosa-1(24),7,9,18(25),19,22-hexaene-17,26-dione] |  |
| 7.00 to 9.00 |  | O=C1NCCNc2ncc(F)cc2[C@H]2CCCN2c2ccn3ncc1c3n2 [Example 12, (6R)-9-fluoro-2,11,13,16,20,21,24-heptaazapentacyclo[16.5.2.0^2,6.0^7,12.0^21,25]pentacosa-1(24),7,9,11,18(25),19,22-heptaen-17-one] |  |
| 7.00 to 9.00 |  | O=C1NC[C@@H](F)Cn2cc(F)cc(c2=O)[C@H]2CCCN2c2ccn3ncc1c3n2 [Example 17, (6R,13R)-9,13-difluoro-2,11,15,19,20,23-hexaazapentacyclo[15.5.2.1^7,11.0^2,6.0^20,24]pentacosa-1(23),7,9,17(24),18,21-hexaene-16,25-dione] |  |
|  | 7.00 to 9.00 | CC1(C)CNC(=O)c2cnn3ccc(nc23)N2CCC[C@@H]2c2cc(F)cnc2OC1 [Example 36, (6R)-9-fluoro-15,15-dimethyl-13-oxa-2,11,17,21,22,25-hexaazapentacyclo [17.5.2.0^2,6.0^7,12.0^22,26]hexacosa-1(25),7,9,11,19(26),20,23-heptaen-18-one] |  |
|  | 7.00 to 9.00 | CC1(C)CNC(=O)c2cnn3ccc(nc23)N2CCC[C@@H]2c2cc(F)cn(c2=O)C1 [Example 40, (6R)-9-fluoro-13,13-dimethyl-2,11,15,19,20,23-hexaazapentacyclo [15.5.2.1^7,11.0^2,6.0^20,24]pentacosa-1(23),7,9,17(24),18,21-hexaene-16,25-dione] |  |
|  | 7.00 to 9.00 | O=C1NC[C@@H](O)COc2ccc(F)cc2[C@H]2C[C@@H](O)CN2c2ccn3ncc1c3n2 [Example 44, (4R,6R,15R)-9-fluoro-4,15-dihydroxy-13-oxa-2,17,21,22,25-pentaazapentacyclo [17.5.2.0^2,6.0^7,12.0^22,26]hexacosa-1(25),7(12),8,10,19(26),20,23-heptaen-18-one] |  |
|  | 7.00 to 9.00 | O=C1NC[C@@H](O)COc2ccc(F)cc2[C@@H]2C[C@@H](O)CN2c2ccn3ncc1c3n2 [Example 44-B, (4R,6S,15R)-9-fluoro-4,15-dihydroxy-13-oxa-2,17,21,22,25-pentaazapentacyclo [17.5.2.0^2,6.0^7,12.0^22,26]hexacosa-1(25),7(2),8,10,19(26),20,23-heptaen-18-one] |  |
